# Data as given in ChEMBL document CHEMBL1150491, “Chemistry and pharmacokinetics of diarylthiophenes and terphenyls as selective COX-2 inhibitors” (Bioorg Med Chem Lett, 1996).
# Assays:
# [1] = target: T1, Prostaglandin G/H synthase 2 (Homo sapiens, UniProt P35354); experiment: Compound was evaluated for inhibitory activity against human Prostaglandin G/H synthase 2
# T1 sequence (P35354 whole entry): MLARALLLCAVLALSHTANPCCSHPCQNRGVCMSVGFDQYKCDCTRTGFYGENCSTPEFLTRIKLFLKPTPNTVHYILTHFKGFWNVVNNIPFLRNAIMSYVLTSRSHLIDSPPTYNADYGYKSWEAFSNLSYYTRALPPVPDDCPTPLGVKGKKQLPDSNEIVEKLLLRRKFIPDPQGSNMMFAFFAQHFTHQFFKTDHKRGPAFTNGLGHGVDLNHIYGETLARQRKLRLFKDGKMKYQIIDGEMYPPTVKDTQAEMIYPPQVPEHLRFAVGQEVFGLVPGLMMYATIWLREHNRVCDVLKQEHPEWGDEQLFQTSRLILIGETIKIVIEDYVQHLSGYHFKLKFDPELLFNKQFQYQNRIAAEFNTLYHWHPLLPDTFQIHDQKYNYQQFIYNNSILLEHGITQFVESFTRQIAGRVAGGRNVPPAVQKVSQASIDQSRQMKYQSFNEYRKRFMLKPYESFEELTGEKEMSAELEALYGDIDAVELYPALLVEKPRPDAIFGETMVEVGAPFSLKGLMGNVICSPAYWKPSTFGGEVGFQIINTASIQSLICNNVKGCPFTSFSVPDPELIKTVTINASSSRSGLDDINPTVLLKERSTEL
# [2] = target: T2, Prostaglandin G/H synthase 1 (Ovis aries, UniProt P05979); experiment: Compound was evaluated for inhibitory activity against ovine Prostaglandin G/H synthase 1
# T2 sequence (P05979 whole entry): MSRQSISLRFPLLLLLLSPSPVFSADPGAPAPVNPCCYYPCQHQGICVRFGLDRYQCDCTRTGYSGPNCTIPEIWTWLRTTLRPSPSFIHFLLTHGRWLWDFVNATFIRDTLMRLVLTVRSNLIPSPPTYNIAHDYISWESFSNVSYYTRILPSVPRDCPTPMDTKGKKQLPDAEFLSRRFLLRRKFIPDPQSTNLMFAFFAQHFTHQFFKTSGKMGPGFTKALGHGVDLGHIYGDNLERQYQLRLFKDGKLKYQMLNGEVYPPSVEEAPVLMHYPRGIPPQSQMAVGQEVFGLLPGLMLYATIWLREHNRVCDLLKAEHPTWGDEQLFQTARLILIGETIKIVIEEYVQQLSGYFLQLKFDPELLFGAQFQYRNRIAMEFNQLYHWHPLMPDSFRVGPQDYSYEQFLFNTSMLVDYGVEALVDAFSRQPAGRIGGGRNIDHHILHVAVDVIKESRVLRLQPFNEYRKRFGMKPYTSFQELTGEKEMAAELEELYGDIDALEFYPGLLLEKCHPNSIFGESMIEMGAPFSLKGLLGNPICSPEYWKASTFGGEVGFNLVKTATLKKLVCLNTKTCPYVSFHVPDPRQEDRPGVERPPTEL
# [3] = Half life period was evaluated against Sprague-Dawley rats at a dose of 15 mg/kg after iv administration; type: ADME, organism-based; set-up: dose 15 mg/kg, route intravenous; details: rat, in vivo
# [4] = Volume of distribution was evaluated in Sprague-Dawley rats at a dose of 15 mg/kg after iv administration; type: ADME, organism-based; set-up: dose 15 mg/kg, route intravenous; details: rat, in vivo, read-out: Vss
# [5] = Oral bioavailability in rat (Sprague-Dawley) (dose 15 mg/kg); type: ADME, organism-based; details: in vivo
# [6] = Plasma clearance was evaluated in Sprague-Dawley rats at a dose of 15 mg/kg after iv administration; type: ADME, organism-based; set-up: dose 15 mg/kg, route intravenous; details: rat
# [7] = Time taken to reach maximum concentration in plasma was evaluated in Sprague-Dawley rats at a dose of 15 mg/kg after po administration; type: ADME, organism-based; set-up: dose 15 mg/kg, route oral; details: rat
# [8] = Maximum concentration in plasma was evaluated in Sprague-Dawley rats at a dose of 15 mg/kg after po administration; type: ADME, organism-based; set-up: dose 15 mg/kg, route oral; details: rat
# [9] = Half life period was evaluated in Sprague-Dawley rats at a dose of 15 mg/kg after po administration; type: ADME, organism-based; set-up: dose 15 mg/kg, route oral; details: rat, in vivo
# Canis familiaris [10] = experiment: Area under curve was evaluated against Beagle dog at a dose of 15 mg/kg after po administration; type: ADME, organism-based, Canis lupus familiaris; set-up: dose 15 mg/kg, route oral; details: in vivo
# [11] = Area under curve was evaluated against Cynomolgus monkey at a dose of 15 mg/kg after po administration; type: ADME, organism-based; set-up: dose 15 mg/kg, route oral; details: cercopithecidae, in vivo
# [12] = Maximum concentration was evaluated against man at a dose of 10 mg/kg after po administration; type: ADME, organism-based; set-up: dose 10 mg/kg, route oral; details: human, in vivo
# [13] = Maximum time was evaluated against Cynomolgus monkey at a dose of 15 mg/kg after po administration; type: ADME, organism-based; set-up: dose 15 mg/kg, route oral; details: cercopithecidae, in vivo
# [14] = Maximum concentration was evaluated against Cynomolgus monkey at a dose of 15 mg/kg after po administration; type: ADME, organism-based; set-up: dose 15 mg/kg, route oral; details: cercopithecidae, in vivo
# [15] = Bioavailability was evaluated against Cynomolgus monkey at a dose of 15 mg/kg after po administration; type: ADME, organism-based, Macaca fascicularis; details: in vivo
# [16] = Area under curve was evaluated against man at a dose of 10 mg/kg after po administration; type: ADME, organism-based; set-up: dose 10 mg/kg, route oral; details: human, in vivo
# [17] = Bioavailability was evaluated against Beagle dog at a dose of 15 mg/kg after po administration; type: ADME, organism-based, Canis lupus familiaris; details: in vivo
# Canis familiaris [18] = experiment: Maximum time was evaluated against Beagle dog at a dose of 15 mg/kg after po administration; type: ADME, organism-based, Canis lupus familiaris; set-up: dose 15 mg/kg, route oral; details: in vivo
# Canis familiaris [19] = experiment: Half life period was evaluated against Beagle dog at a dose of 15 mg/kg after po administration; type: ADME, organism-based, Canis lupus familiaris; set-up: dose 15 mg/kg, route oral; details: in vivo
# [20] = Half life period was evaluated against man at a dose of 10 mg/kg after po administration; type: ADME, organism-based; set-up: dose 10 mg/kg, route oral; details: human, in vivo
# [21] = Maximum time was evaluated against man at a dose of 10 mg/kg after po administration; type: ADME, organism-based; set-up: dose 10 mg/kg, route oral; details: human, in vivo
# Canis familiaris [22] = experiment: Maximum concentration was evaluated against Beagle dog at a dose of 15 mg/kg after po administration; type: ADME, organism-based, Canis lupus familiaris; set-up: dose 15 mg/kg, route oral; details: in vivo
# [23] = Half life period was evaluated against Cynomolgus monkey at a dose of 15 mg/kg after po administration; type: ADME, organism-based; set-up: dose 15 mg/kg, route oral; details: cercopithecidae, in vivo
smiles,measurement,setting,value
CS(=O)(=O)c1ccc(-c2cscc2-c2ccccc2)cc1,IC50,[1],4 µM
same,IC50,[2],> 1000 µM
CS(=O)(=O)c1ccc(-c2ccsc2-c2ccccc2)cc1,IC50,[1],4 µM
same,IC50,[2],> 1000 µM
CS(=O)(=O)c1ccc(-c2cc(CC#N)sc2-c2ccc(F)cc2)cc1,IC50,[1],49 µM
same,IC50,[2],> 300 µM
CS(=O)(=O)c1ccc(-c2ccccc2-c2ccccc2)cc1,half-life,[3],1.7 h
same,Vd,[4],3.08 L/kg
same,bioavailability,[5],60%
same,clearance,[6],35.8 mL/min/kg
same,Tmax,[7],0.25 h
same,IC50,[1],11 µM
same,IC50,[2],> 1000 µM
same,Cmax,[8],1430 ng/mL
CS(=O)(=O)c1ccc(-c2ccsc2-c2ccc(F)cc2)cc1,half-life,[3],14.3 h
same,half-life,[9],12.1 h
same,Vd,[4],19 L/kg
same,bioavailability,[5],3.4%
same,clearance,[6],158 mL/min/kg
same,Tmax,[7],4 h
same,IC50,[1],8 µM
same,IC50,[2],490 µM
same,Cmax,[8],8 ng/mL
CS(=O)(=O)c1ccc(-c2cc(Sc3ccccc3)sc2-c2ccc(F)cc2)cc1,IC50,[1],66 µM
same,IC50,[2],> 300 µM
CS(=O)(=O)c1ccc(-c2c(-c3ccccc3)sc3c2CCCC3)cc1,IC50,[1],19 µM
same,IC50,[2],> 1000 µM
CS(=O)(=O)c1ccc(-c2cc([N+](=O)[O-])sc2-c2ccc(F)cc2)cc1,IC50,[1],14 µM
same,IC50,[2],> 1000 µM
c1ccc(-c2ccsc2-c2ccccc2)cc1,half-life,[3],4.94 h
same,Vd,[4],19.6 L/kg
same,bioavailability,[5],20%
same,clearance,[6],51.3 mL/min/kg
same,Tmax,[7],4.2 h
same,IC50,[1],> 300 µM
same,IC50,[2],28 µM
same,Cmax,[8],100 ng/mL
CS(=O)(=O)c1ccc(-c2cscc2-c2ccc(S(C)(=O)=O)cc2)cc1,IC50,[1],> 300 µM
same,IC50,[2],> 300 µM
CS(=O)(=O)c1ccc(-c2cc(CCC(=O)O)sc2-c2ccc(F)cc2)cc1,IC50,[1],> 300 µM
same,IC50,[2],12 µM
CS(=O)(=O)c1ccc(-c2cscc2-c2ccc(F)cc2)cc1,IC50,[1],8 µM
same,IC50,[2],674 µM
CCOC(=O)/C=C/c1cc(-c2ccc(S(C)(=O)=O)cc2)c(-c2ccc(F)cc2)s1,IC50,[1],> 300 µM
same,IC50,[2],100 µM
CS(=O)(=O)c1ccc(-c2cc(N)sc2-c2ccc(F)cc2)cc1,IC50,[1],3 µM
same,IC50,[2],6 µM
COc1ccc(-c2sccc2-c2ccc(S(C)(=O)=O)cc2)cc1,IC50,[1],5 µM
same,IC50,[2],48 µM
CS(=O)(=O)c1ccc(-c2cc(S(C)(=O)=O)sc2-c2ccc(F)cc2)cc1,IC50,[1],200 µM
same,IC50,[2],> 300 µM
CSc1ccc(-c2cscc2-c2ccc(S(C)(=O)=O)cc2)cc1,IC50,[1],6 µM
same,IC50,[2],93 µM
CSc1ccc(-c2cscc2-c2ccc(SC)cc2)cc1,IC50,[1],101 µM
same,IC50,[2],15 µM
COc1ccc(-c2cscc2-c2ccc(S(C)(=O)=O)cc2)cc1,IC50,[1],5 µM
same,IC50,[2],> 1000 µM
CS(=O)(=O)c1ccc(-c2ccsc2-c2ccc(O)cc2)cc1,IC50,[1],86 µM
same,IC50,[2],293 µM
Cc1ccc(-c2cscc2-c2ccc(S(C)(=O)=O)cc2)cc1,IC50,[1],4 µM
same,IC50,[2],438 µM
Cc1ccc(-c2sccc2-c2ccc(S(C)(=O)=O)cc2)cc1,IC50,[1],13 µM
same,IC50,[2],> 1000 µM
CCOC(=O)CCc1cc(-c2ccc(S(C)(=O)=O)cc2)c(-c2ccc(F)cc2)s1,IC50,[1],130 µM
same,IC50,[2],200 µM
Cc1cc(-c2ccc(S(C)(=O)=O)cc2)c(-c2ccc(F)cc2)s1,half-life,[3],19.4 h
same,Vd,[4],16.8 L/kg
same,bioavailability,[5],0.9%
same,clearance,[6],28.2 mL/min/kg
same,Tmax,[7],0.7 h
same,IC50,[1],10 µM
same,IC50,[2],80 µM
same,Cmax,[8],20 ng/mL
CS(=O)(=O)c1ccc(-c2cc(Br)sc2-c2ccc(F)cc2)cc1 [DUP-697],AUC,Canis familiaris [10],1.5 µg·h/mL
same,AUC,[11],56 µg·h/mL
same,half-life,[3],22 h
same,half-life,[9],16.6 h
same,Cmax,[12],60.5 ng/mL
same,Tmax,[13],24 h
same,Cmax,[14],698 ng/mL
same,bioavailability,[15],30.4%
same,AUC,[16],3240 µg·h/mL
same,bioavailability,[17],4.4%
same,Vd,[4],6.3 L/kg
same,bioavailability,[5],75%
same,T max,Canis familiaris [18],1 h
same,clearance,[6],3.63 mL/min/kg
same,Tmax,[7],8 h
same,T1/2,Canis familiaris [19],6 h
same,half-life,[20],292 h
same,Tmax,[21],3 h
same,Cmax,Canis familiaris [22],411 ng/mL
same,half-life,[23],31.8 h
same,Cmax,[8],2400 ng/mL
